# Reference: ChEMBL document CHEMBL1133177, “Application of similarity matrices and genetic neural networks in quantitative structure-activity relationships of 2- or 4-(4-Methylpiperazino)pyrimidines: 5-HT(2A) receptor antagonists” (J Med Chem, 2000)
# How the values were obtained:
# [1] = target: T1, 5-hydroxytryptamine receptor 2A (Rattus norvegicus, UniProt P14842); assay: Affinity for 5-hydroxytryptamine 2A receptor in rat brain cortex by ability to displace [3H]ketanserin; type: tissue-based
# T1 sequence (P14842 whole entry): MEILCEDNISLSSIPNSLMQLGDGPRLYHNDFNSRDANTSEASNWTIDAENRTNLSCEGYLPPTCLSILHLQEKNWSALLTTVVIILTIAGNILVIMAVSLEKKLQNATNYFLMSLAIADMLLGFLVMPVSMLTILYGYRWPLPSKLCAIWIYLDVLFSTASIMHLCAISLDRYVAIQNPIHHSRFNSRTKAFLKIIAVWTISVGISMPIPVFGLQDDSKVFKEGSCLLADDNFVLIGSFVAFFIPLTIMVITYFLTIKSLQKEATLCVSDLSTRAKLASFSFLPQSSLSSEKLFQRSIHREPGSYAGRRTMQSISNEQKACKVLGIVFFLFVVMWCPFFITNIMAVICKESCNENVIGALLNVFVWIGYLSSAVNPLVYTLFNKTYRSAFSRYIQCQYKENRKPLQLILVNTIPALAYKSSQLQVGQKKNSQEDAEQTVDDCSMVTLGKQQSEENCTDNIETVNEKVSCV
# [2] = target: T1, 5-hydroxytryptamine receptor 2A; assay: (§1) Affinity at 5-hydroxytryptamine 2A receptor of the rat brain cortex was assessed on the basis of their ability to displace [3H]ketanserin
# [3] = target: T1, 5-hydroxytryptamine receptor 2A; assay: as §1; remark: listed apart in the source
# [4] = target: T1, 5-hydroxytryptamine receptor 2A; assay: Affinity 5-hydroxytryptamine 2A receptor of the rat brain cortex was assessed on the basis of their ability to displace [3H]ketanserin
Compound,Ki [1] [nM],Ki [2] [nM],Ki [3] [nM],Ki [4] [nM]
CN1CCN(c2nc(-c3ccco3)cc(-c3cc4ccccc4s3)n2)CC1,37.2,,,
CN1CCN(c2nc(-c3ccsc3)cc(-c3cccs3)n2)CC1,20.9,,,
CN1CCN(c2nc(Cl)cc(-c3cccs3)n2)CC1,,353,347,
Cc1c(-c2cccs2)nc(N2CCN(C)CC2)nc1-c1cccs1,17,,,
CN1CCN(c2cc(-n3ccnc3)ncn2)CC1,,> 10000,> 10000,
CN1CCN(c2cc(-c3cccs3)nc(Cl)n2)CC1,,2720,2690,
Cc1ccc(-c2cc(Cl)nc(N3CCN(C)CC3)n2)cc1,575,,,582
CN1CCN(c2nccc(-c3ccsc3)n2)CC1,191,,,
CN1CCN(c2cc(-c3ccco3)nc(Cl)n2)CC1,,5960,6030,

# The remaining lines, values ahead:
Ki [1] [nM],Ki [2] [nM],Ki [3] [nM],Ki [4] [nM],Compound
37.2,,,,CN1CCN(c2nc(-c3ccco3)cc(-c3cccs3)n2)CC1
55,,,,CN1CCN(c2nc(-c3ccoc3)cc(-c3cc4ccccc4s3)n2)CC1
380,,,384,CN1CCN(c2nccc(-n3ccnc3)n2)CC1
,4220,4270,,Cc1ccc(-c2cc(N3CCN(C)CC3)nc(Cl)n2)cc1
110,,,,CN1CCN(c2nc(-c3ccco3)cc(-c3cc4ccccc4o3)n2)CC1
135,,,,CN1CCN(c2nc(-c3cc4ccccc4o3)cc(-c3cccn3C)n2)CC1
40.7,,,41,CN1CCN(c2nc(Cl)cc(-c3ccoc3)n2)CC1
